Laboratory results taken from ChEMBL document CHEMBL5346912, “Discovery of 3,5-diaryl-1H-pyrazol-based ureas as potent RET inhibitors” (Eur J Med Chem, 2023).
pIC50, pKd: −log10 of the molar value. Calls of active or inactive are those of the source. The rule behind the calls is not given here.

What was measured:
BaF3 [1] = assay: Antiproliferative activity against mouse BaF3 cells expressing CCDC6-RET-G810C incubated for 72 hrs by CCK8 assay; format: functional, cell-based; conditions: BaF3, 72 h
[2] = molecular target: T1, Proto-oncogene tyrosine-protein kinase receptor Ret (Homo sapiens, UniProt P07949); assay: Binding affinity to RET (unknown origin) assessed as dissociation constant in presence of ATP by FRET based Z'-Lyte assay
BaF3 [3] = assay: Antiproliferative activity against mouse BaF3 cells expressing CCDC6-RET-V804M incubated for 72 hrs by CCK8 assay; format: functional, cell-based; conditions: BaF3, 72 h
BaF3 [4] = assay: Antiproliferative activity against mouse BaF3 cells expressing CCDC6-RET incubated for 72 hrs by CCK8 assay; format: functional, cell-based; conditions: BaF3, 72 h
BaF3 [5] = assay: Antiproliferative activity against mouse BaF3 cells expressing CCDC6-RET-G810R incubated for 72 hrs by CCK8 assay; format: functional, cell-based; conditions: BaF3, 72 h
BaF3 [6] = assay: cells; conditions: Mus musculus, BaF3, 72 h
Description: Antiproliferative activity against mouse BaF3 cells incubated for 72 hrs by CCK8 assay

[7] = Bioavailability in fasted Sprague-Dawley rat at 25 mg/kg, po; format: ADME, organism-based; conditions: in vivo
[8] = molecular target: Vascular endothelial growth factor receptor 2 (Homo sapiens, UniProt P35968); assay: Inhibition of VEGFR2 (unknown origin) by DiscoverX KINOMEscan assay
[9] = Tmax in fasted Sprague-Dawley rat at 25 mg/kg, po; format: ADME, organism-based; conditions: in vivo
[10] = molecular target: T1, Proto-oncogene tyrosine-protein kinase receptor Ret; assay: Inhibition of RET (unknown origin) by DiscoverX KINOMEscan assay
[11] = molecular target: Proto-oncogene tyrosine-protein kinase receptor Ret (Mus musculus) (UniProt P35546); assay: Inhibition of RET signalling pathway in mouse BaF3 cells harboring CCDC6-RET-V804M mutant assessed as suppression of SHC activation at 33.3 nM incubated for 4 hrs by Western blot analysis; format: cell-based
[12] = molecular target: Proto-oncogene tyrosine-protein kinase receptor Ret (Mus musculus) (UniProt P35546); assay: Inhibition of RET signalling pathway in mouse BaF3 cells harboring CCDC6-RET assessed as suppression of RET phosphorylation at 33.3 nM incubated for 4 hrs by Western blot analysis; format: cell-based
[13] = molecular target: Proto-oncogene tyrosine-protein kinase receptor Ret (Mus musculus) (UniProt P35546); assay: Inhibition of RET signalling pathway in mouse BaF3 cells harboring CCDC6-RET-G810C mutant assessed as suppression of SHC activation incubated for 4 hrs by Western blot analysis; format: cell-based; conditions: dose <= 300.0 nM
[14] = molecular target: Platelet-derived growth factor receptor beta (Homo sapiens, UniProt P09619); assay: Inhibition of PDGFRB (unknown origin) by DiscoverX KINOMEscan assay
[15] = molecular target: Macrophage colony-stimulating factor 1 receptor (Homo sapiens, UniProt P07333); assay: Inhibition of CSF1R (unknown origin) by DiscoverX KINOMEscan assay
[16] = Cmax in Sprague-Dawley rat at 5 mg/kg, iv; format: ADME, organism-based; set-up: dose 5 mg/kg, route iv; conditions: in vivo
[17] = molecular target: Proto-oncogene tyrosine-protein kinase receptor Ret (Homo sapiens, UniProt P07949, V804M); assay: Inhibition of RET V804M mutant (unknown origin) by DiscoverX KINOMEscan assay
[18] = AUC (0 to infinity) in Sprague-Dawley rat at 5 mg/kg, iv; format: ADME, organism-based; set-up: dose 5 mg/kg, route iv; conditions: in vivo
[19] = molecular target: Epithelial discoidin domain-containing receptor 1 (Homo sapiens, UniProt Q08345); assay: Inhibition of DDR1 (unknown origin) by DiscoverX KINOMEscan assay
[20] = Half life in fasted Sprague-Dawley rat at 25 mg/kg, po; format: ADME, organism-based; conditions: in vivo
[21] = Cmax in fasted Sprague-Dawley rat at 25 mg/kg, po; format: ADME, organism-based; set-up: dose 25 mg/kg, route po; conditions: in vivo
[22] = molecular target: Mast/stem cell growth factor receptor Kit (Homo sapiens, UniProt P10721); assay: Inhibition of KIT (unknown origin) by DiscoverX KINOMEscan assay
[23] = molecular target: Epidermal growth factor receptor (Homo sapiens, UniProt P00533); assay: Inhibition of EGFR (unknown origin) by DiscoverX KINOMEscan assay
[24] = molecular target: Proto-oncogene tyrosine-protein kinase receptor Ret (Mus musculus) (UniProt P35546); assay: Inhibition of RET signalling pathway in mouse BaF3 cells harboring CCDC6-RET-G810C mutant assessed as suppression of RET phosphorylation at 33.3 nM incubated for 4 hrs by Western blot analysis; format: cell-based
[25] = AUC (0 to infinity) in fasted Sprague-Dawley rat at 25 mg/kg, po; format: ADME, organism-based; set-up: dose 25 mg/kg, route po; conditions: in vivo
[26] = molecular target: Proto-oncogene tyrosine-protein kinase receptor Ret (Mus musculus) (UniProt P35546); assay: Inhibition of RET signalling pathway in mouse BaF3 cells harboring CCDC6-RET assessed as suppression of SHC activation at 33.3 nM incubated for 4 hrs by Western blot analysis; format: cell-based
[27] = molecular target: Proto-oncogene tyrosine-protein kinase receptor Ret (Mus musculus) (UniProt P35546); assay: Inhibition of RET signalling pathway in mouse BaF3 cells harboring CCDC6-RET-V804M mutant assessed as suppression of RET phosphorylation at 33.3 nM incubated for 4 hrs by Western blot analysis; format: cell-based
[28] = molecular target: Proto-oncogene tyrosine-protein kinase receptor Ret (Mus musculus) (UniProt P35546); assay: Inhibition of RET signalling pathway in mouse BaF3 cells harboring CCDC6-RET-G810C mutant assessed as suppression of SHC activation at 33.3 nM incubated for 4 hrs by Western blot analysis; format: cell-based
[29] = Half life in Sprague-Dawley rat at 5 mg/kg, iv; format: ADME, organism-based; conditions: in vivo
[30] = molecular target: Proto-oncogene tyrosine-protein kinase receptor Ret (Mus musculus) (UniProt P35546); assay: Inhibition of RET signalling pathway in mouse BaF3 cells harboring CCDC6-RET-G810C mutant assessed as suppression of RET activation incubated for 4 hrs by Western blot analysis; format: cell-based; conditions: dose <= 300.0 nM

Chain of Proto-oncogene tyrosine-protein kinase receptor Ret (Mus musculus) (P35546 whole entry): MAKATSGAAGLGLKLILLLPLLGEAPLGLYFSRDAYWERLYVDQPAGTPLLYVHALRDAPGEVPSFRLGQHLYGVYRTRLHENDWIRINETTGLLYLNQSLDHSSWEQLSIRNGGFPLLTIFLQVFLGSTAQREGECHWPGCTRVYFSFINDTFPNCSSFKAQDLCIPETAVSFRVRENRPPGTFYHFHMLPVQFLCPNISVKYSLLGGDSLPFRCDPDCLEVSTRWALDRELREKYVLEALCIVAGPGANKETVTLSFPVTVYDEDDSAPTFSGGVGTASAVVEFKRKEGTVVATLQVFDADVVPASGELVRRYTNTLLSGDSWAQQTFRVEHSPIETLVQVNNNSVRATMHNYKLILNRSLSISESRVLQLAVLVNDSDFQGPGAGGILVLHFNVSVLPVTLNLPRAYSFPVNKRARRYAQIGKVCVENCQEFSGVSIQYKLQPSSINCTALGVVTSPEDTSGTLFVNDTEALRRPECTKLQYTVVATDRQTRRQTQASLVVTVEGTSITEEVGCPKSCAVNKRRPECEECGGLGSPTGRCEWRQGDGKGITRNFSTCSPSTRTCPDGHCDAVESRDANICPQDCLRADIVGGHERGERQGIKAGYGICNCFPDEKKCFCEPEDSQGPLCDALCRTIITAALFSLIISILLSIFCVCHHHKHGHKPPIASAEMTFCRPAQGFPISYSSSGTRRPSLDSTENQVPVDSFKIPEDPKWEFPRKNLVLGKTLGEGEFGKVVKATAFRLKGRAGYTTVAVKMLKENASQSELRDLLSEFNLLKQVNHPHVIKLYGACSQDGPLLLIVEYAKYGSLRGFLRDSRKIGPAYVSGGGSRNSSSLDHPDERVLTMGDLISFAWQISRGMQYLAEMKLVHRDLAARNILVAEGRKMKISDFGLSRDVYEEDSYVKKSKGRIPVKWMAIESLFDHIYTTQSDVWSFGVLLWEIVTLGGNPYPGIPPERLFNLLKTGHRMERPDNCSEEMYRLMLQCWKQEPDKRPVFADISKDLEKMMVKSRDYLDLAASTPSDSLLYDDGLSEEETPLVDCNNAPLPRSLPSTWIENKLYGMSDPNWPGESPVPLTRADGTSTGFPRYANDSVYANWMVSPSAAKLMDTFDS
T1 sequence (P07949 whole entry): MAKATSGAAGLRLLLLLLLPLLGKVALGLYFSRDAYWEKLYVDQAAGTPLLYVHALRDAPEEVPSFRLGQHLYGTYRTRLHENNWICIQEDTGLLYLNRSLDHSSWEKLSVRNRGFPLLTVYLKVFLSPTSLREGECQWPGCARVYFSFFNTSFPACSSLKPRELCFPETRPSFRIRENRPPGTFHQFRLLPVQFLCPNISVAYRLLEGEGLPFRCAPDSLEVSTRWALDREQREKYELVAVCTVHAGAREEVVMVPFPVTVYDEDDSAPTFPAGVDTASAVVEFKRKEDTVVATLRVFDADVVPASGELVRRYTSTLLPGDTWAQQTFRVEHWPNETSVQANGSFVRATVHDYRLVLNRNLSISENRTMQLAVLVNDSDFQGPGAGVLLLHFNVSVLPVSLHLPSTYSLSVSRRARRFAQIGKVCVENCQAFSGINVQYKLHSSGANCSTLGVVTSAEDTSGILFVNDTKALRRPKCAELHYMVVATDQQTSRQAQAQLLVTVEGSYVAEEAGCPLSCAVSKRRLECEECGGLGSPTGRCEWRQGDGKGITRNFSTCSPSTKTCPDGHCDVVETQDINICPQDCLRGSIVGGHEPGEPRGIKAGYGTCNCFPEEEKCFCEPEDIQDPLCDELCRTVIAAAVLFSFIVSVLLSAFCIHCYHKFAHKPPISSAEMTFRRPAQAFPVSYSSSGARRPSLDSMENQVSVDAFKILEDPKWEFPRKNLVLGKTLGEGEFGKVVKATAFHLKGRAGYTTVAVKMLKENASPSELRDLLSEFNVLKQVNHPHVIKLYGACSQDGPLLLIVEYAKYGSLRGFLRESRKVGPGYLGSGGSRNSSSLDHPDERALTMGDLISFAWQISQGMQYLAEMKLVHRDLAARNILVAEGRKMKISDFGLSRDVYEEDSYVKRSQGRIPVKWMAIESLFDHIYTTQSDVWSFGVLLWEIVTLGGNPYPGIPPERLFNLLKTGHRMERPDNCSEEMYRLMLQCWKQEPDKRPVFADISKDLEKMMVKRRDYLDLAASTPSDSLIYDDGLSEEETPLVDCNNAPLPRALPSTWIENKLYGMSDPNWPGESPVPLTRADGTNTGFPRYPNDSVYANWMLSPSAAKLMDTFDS
Chain of Platelet-derived growth factor receptor beta (P09619 whole entry): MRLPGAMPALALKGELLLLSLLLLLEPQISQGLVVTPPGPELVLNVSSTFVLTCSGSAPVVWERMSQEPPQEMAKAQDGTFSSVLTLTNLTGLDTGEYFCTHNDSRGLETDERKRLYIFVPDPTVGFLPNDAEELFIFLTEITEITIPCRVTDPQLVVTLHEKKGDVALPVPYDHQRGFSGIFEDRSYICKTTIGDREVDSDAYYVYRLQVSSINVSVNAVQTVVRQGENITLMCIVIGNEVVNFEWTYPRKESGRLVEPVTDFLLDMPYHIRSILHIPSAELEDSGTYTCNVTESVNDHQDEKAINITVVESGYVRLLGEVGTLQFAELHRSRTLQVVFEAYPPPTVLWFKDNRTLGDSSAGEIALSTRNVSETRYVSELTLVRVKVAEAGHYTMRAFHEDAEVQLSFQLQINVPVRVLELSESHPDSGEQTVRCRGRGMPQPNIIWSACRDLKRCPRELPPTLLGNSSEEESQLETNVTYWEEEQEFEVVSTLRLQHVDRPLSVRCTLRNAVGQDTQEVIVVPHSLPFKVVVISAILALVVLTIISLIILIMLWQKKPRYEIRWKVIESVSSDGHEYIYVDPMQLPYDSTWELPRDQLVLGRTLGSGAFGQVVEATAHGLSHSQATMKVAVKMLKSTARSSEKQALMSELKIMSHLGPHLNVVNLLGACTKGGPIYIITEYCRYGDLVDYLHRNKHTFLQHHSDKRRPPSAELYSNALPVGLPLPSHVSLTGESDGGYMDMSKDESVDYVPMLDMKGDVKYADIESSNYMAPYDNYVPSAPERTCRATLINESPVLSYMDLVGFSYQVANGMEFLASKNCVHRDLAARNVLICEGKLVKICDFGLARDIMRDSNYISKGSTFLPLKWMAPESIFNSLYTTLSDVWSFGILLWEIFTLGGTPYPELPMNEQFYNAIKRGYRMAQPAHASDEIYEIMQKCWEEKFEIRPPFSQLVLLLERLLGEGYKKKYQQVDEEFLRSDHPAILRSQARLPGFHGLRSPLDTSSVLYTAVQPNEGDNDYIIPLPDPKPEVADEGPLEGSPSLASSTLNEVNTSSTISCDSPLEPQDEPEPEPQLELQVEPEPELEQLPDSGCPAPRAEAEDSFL
Chain of Epidermal growth factor receptor (P00533 whole entry): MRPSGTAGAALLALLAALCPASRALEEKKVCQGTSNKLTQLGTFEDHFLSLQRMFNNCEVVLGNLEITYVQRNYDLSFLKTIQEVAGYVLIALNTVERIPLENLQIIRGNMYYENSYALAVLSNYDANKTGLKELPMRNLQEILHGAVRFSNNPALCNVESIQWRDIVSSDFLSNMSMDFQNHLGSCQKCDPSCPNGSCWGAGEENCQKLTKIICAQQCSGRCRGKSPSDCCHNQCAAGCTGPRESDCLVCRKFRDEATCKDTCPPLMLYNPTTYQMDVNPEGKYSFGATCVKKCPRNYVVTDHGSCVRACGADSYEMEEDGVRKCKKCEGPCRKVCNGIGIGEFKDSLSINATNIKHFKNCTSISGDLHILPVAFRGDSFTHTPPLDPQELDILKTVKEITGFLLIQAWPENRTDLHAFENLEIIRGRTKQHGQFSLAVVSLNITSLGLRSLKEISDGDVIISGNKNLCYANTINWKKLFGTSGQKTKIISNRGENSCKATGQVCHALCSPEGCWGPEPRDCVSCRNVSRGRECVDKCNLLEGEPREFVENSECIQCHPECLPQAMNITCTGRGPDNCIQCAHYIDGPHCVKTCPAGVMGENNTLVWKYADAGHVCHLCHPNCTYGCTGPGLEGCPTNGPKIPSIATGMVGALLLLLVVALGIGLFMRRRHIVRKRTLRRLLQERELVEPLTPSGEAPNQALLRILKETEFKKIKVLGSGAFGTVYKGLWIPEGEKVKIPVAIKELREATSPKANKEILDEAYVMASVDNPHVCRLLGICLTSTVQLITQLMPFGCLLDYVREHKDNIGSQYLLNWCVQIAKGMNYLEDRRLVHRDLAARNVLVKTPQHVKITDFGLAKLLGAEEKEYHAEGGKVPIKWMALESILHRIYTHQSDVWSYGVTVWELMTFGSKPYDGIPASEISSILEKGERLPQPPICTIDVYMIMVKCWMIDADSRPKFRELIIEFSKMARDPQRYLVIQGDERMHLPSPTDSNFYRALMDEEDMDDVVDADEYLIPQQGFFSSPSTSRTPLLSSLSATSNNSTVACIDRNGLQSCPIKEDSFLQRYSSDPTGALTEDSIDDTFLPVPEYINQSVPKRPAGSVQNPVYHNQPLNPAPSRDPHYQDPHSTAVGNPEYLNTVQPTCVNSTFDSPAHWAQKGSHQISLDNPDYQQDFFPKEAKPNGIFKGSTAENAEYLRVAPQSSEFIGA

With `CC(C)(C)c1cc(NC(=O)Nc2ccc(-c3cc(-c4ccc(OCCN5CCOCC5)cc4Cl)[nH]n3)cc2)no1` the pIC50 (BaF3 [1]) was 6.27, the pKd [2] was 7.96 and the pIC50 (BaF3 [3]) was 7.45. The pIC50 (BaF3 [4]) was 7.44, the pIC50 (BaF3 [5]) was 6.20 and the pIC50 (BaF3 [6]) was under 5.00.
Molecule `COc1cc(-c2cc(-c3ccc(NC(=O)Nc4cc(C(C)(C)C)on4)c(F)c3)n[nH]2)ccc1OCCN1CCOCC1` has a pIC50 (BaF3 [1]) of 6.91, a pKd [2] of 7.99 and a pIC50 (BaF3 [3]) of 8.13. The pIC50 (BaF3 [4]) was 8.17, the pIC50 (BaF3 [5]) was 6.50 and the pIC50 (BaF3 [6]) was under 5.00.
`Cc1cc(OCCN2CCOCC2)ccc1-c1cc(-c2ccc(NC(=O)Nc3cc(C(C)(C)C)on3)cc2)n[nH]1` showed a pIC50 (BaF3 [1]) of 5.69, a pKd [2] of 7.90 and a pIC50 (BaF3 [3]) of 6.76. It also gave a pIC50 (BaF3 [4]) of 6.92, a pIC50 (BaF3 [5]) of 5.71 and a pIC50 (BaF3 [6]) of under 5.52.
Molecule `CC(C)(C)c1cc(NC(=O)Nc2ccc(-c3cc(-c4ccc(OCCN5CCOCC5)cc4)[nH]n3)cc2)no1` has a bioavailability [7] of 23.6%, a pIC50 [8] of 6.48 and a pIC50 (BaF3 [1]) of 7.05. For the same molecule, the Tmax [9] was 6 h, the pIC50 [10] was 7.79 and the inhibition [11] was “Active”. The inhibition [12] was “Active”, the inhibition [13] was “Dose-Dependent Effect” and the pIC50 [14] was 7.61. It also gave a pIC50 [15] of 7.48, a Cmax [16] of 10700 ng/mL and a pKd [2] of 8.37. For the same molecule, the pIC50 [17] was 7.81, the AUC(0-inf) [18] was 15600 ng·h/mL and the pIC50 [19] was 8.05. For the same molecule, the half-life [20] was 6.9 h, the Cmax [21] was 1250 ng/mL and the pIC50 (BaF3 [3]) was 8.03. The pIC50 [22] was 7.67, the pIC50 [23] was under 6.00 and the inhibition [24] was “Active”. The pIC50 (BaF3 [4]) was 8.03, the AUC(0-inf) [25] was 20500 ng·h/mL and the inhibition [26] was “Active”. The inhibition [27] was “Active”, the inhibition [28] was “Active” and the half-life [29] was 3.3 h. The pIC50 (BaF3 [5]) was 6.26, the inhibition [30] was “Dose-Dependent Effect” and the pIC50 (BaF3 [6]) was 5.91.
`CC(C)(C)c1cc(NC(=O)Nc2ccc(-c3cc(-c4ccc(OCCN5CCOCC5)c(F)c4)[nH]n3)cc2)no1` showed a pIC50 (BaF3 [1]) of 6.90, a pKd [2] of 8.01 and a pIC50 (BaF3 [3]) of 7.85. For the same molecule, the pIC50 (BaF3 [4]) was 7.97, the pIC50 (BaF3 [5]) was 5.65 and the pIC50 (BaF3 [6]) was under 5.00.
`COc1cc(-c2cc(-c3ccc(NC(=O)Nc4cc(C(C)(C)C)on4)cc3)n[nH]2)ccc1OCCN1CCOCC1` showed a pIC50 (BaF3 [1]) of 6.88, a pKd [2] of 8.21 and a pIC50 (BaF3 [3]) of 7.98. It also gave a pIC50 (BaF3 [4]) of 7.92, a pIC50 (BaF3 [5]) of 6.38 and a pIC50 (BaF3 [6]) of 6.35.
`CC(C)(C)c1cc(NC(=O)Nc2ccc(-c3cn(-c4ccc(OCCN5CCOCC5)cc4Cl)nn3)cc2)no1` showed a pIC50 (BaF3 [1]) of 5.74, a pKd [2] of 7.58 and a pIC50 (BaF3 [3]) of 5.93. For the same molecule, the pIC50 (BaF3 [4]) was 6.23, the pIC50 (BaF3 [5]) was 5.97 and the pIC50 (BaF3 [6]) was 5.96.
For `CO[C@]1(C(=O)N[C@@H](C)c2ccc(-n3cc(F)cn3)nc2)CC[C@@H](c2nc(C)cc(Nc3cc(C)[nH]n3)n2)CC1`, the pIC50 (BaF3 [1]) was 6.94, the pIC50 (BaF3 [3]) was 8.39 and the pIC50 (BaF3 [4]) was 8.30. For the same molecule, the pIC50 (BaF3 [5]) was 6.45 and the pIC50 (BaF3 [6]) was 5.98.
`COc1cc(NC(=O)Nc2cc(C(C)(C)C)on2)ccc1-c1cc(-c2ccc(OCCN3CCOCC3)cc2)[nH]n1` gave a pIC50 (BaF3 [1]) of 5.95, a pKd [2] of 7.49 and a pIC50 (BaF3 [3]) of 6.36. The pIC50 (BaF3 [4]) was 6.41, the pIC50 (BaF3 [5]) was 6.01 and the pIC50 (BaF3 [6]) was 6.20.
With `COc1cc(-c2cc(-c3ccc(NC(=O)Nc4cc(C(C)(C)C(F)(F)F)on4)cc3)n[nH]2)ccc1OCCN1CCOCC1` the pIC50 (BaF3 [1]) was 6.86, the pKd [2] was 8.25 and the pIC50 (BaF3 [3]) was 8.28. For the same molecule, the pIC50 (BaF3 [4]) was 8.15, the pIC50 (BaF3 [5]) was 6.64 and the pIC50 (BaF3 [6]) was 6.74.
`CN(C)CCCOc1ccc(-c2cc(-c3ccc(NC(=O)Nc4cc(C(C)(C)C)on4)cc3)n[nH]2)cc1` gave a pIC50 (BaF3 [1]) of 6.88, a pKd [2] of 8.70 and a pIC50 (BaF3 [3]) of 7.98. For the same molecule, the pIC50 (BaF3 [4]) was 8.03, the pIC50 (BaF3 [5]) was 6.27 and the pIC50 (BaF3 [6]) was 5.93.
Molecule `Cc1cc(NC(=O)Nc2cc(C(C)(C)C)on2)ccc1-c1cc(-c2ccc(OCCN3CCOCC3)cc2)[nH]n1` has a pIC50 (BaF3 [1]) of 6.71, a pKd [2] of 7.74 and a pIC50 (BaF3 [3]) of 7.47. It also gave a pIC50 (BaF3 [4]) of 7.45, a pIC50 (BaF3 [5]) of 5.69 and a pIC50 (BaF3 [6]) of under 5.00.
